Experimental data: PubChem BioAssay AID1259411 (Chemical Carcinogenesis Research Information System (CCRIS), 2018)
Calls of active or inactive are those of the source. No rule for the calls is given here.

Tested on: rodent carcinogenicity bioassays, tumor incidence
Assay: CCRIS carcinogenicity studies
Outline: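 Archive of carcinogenicity, mutagenicity, tumor promotion and tumor inhibition results drawn from journals, NCI reports and other sources, expert-reviewed; covers 1985-2011 and is no longer updated.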

Measured: carcinogen call

CN1[C@@H]2CC(OC(=O)[C@H](CO)c3ccccc3)C[C@H]1[C@@H]1O[C@@H]12 (stereo partly specified)
inactive: Species: MOUSE, Strain/Sex: B6C3F1/FEMALE, Route: GAVAGE, Dose: 0, 1, 5, 25 MG/KG IN DISTILLED WATER FOR 104-105 WK (STUDY DURATION: 105 WK), Dose: 0, 1, 5, 25 MG/KG IN DISTILLED WATER FOR 104-105 WK (STUDY DURATION: 105 WK) inactive; negative | Species: MOUSE, Strain/Sex: B6C3F1/FEMALE, Route: GAVAGE, Dose: 0, 25 MG/KG IN WATER 5 D/WK FOR 104 WK, CONTROL AND DOSED GROUPS FED AD LIBITUM (STUDY DURATION: 104 WK) inactive; negative | Species: MOUSE, Strain/Sex: B6C3F1/FEMALE, Route: GAVAGE, Dose: 0, 25 MG/KG IN WATER 5 D/WK FOR 104 WK, CONTROL GROUP DIET RESTRICTED TO LIMIT WEIGHTS TO 85% OF AD LIBITUM-FED GROUP (S inactive; negative | Species: MOUSE, Strain/Sex: B6C3F1/FEMALE, Route: GAVAGE, Dose: 0, 25 MG/KG IN WATER 5 D/WK FOR 104 WK, CONTROL GROUP WAS WEIGHT-MATCHED TO DOSED GROUP (STUDY DURATION: 104 WK) inactive; negative | Species: MOUSE, Strain/Sex: B6C3F1/FEMALE, Route: GAVAGE, Dose: 0, 25 MG/KG IN WATER 5 D/WK FOR 157 WK, CONTROL GROUP DIET RESTRICTED TO LIMIT WEIGHTS TO 85% OF AD LIBITUM-FED GROUPS ( inactive; negative | Species: MOUSE, Strain/Sex: B6C3F1/MALE, Route: GAVAGE, Dose: 0, 1, 5, 25 MG/KG IN DISTILLED WATER FOR 104-105 WK (STUDY DURATION: 105 WK), Dose: 0, 1, 5, 25 MG/KG IN DISTILLED WATER FOR 104-105 WK (STUDY DURATION: 105 WK) inactive; negative | Species: MOUSE, Strain/Sex: B6C3F1/MALE, Route: GAVAGE, Dose: 0, 25 MG/KG IN WATER 5 D/WK FOR 104 WK, CONTROL AND DOSED GROUPS FED AD LIBITUM (STUDY DURATION: 104 WK) inactive; negative | Species: MOUSE, Strain/Sex: B6C3F1/MALE, Route: GAVAGE, Dose: 0, 25 MG/KG IN WATER 5 D/WK FOR 104 WK, CONTROL GROUP DIET RESTRICTED TO LIMIT WEIGHTS TO 85% OF AD LIBITUM FED GROUP (S inactive; negative | Species: MOUSE, Strain/Sex: B6C3F1/MALE, Route: GAVAGE, Dose: 0, 25 MG/KG IN WATER 5 D/WK FOR 104 WK, CONTROL GROUP WAS WEIGHT-MATCHED TO DOSED GROUP (STUDY DURATION: 104 WK) inactive; negative | Species: MOUSE, Strain/Sex: B6C3F1/MALE, Route: GAVAGE, Dose: 0, 25 MG/KG IN WATER 5 D/WK FOR 157 WK, CONTROL GROUP DIET RESTRICTED TO LIMIT WEIGHTS TO 85% OF AD LIBITUM-FED GROUPS ( inactive; negative | Species: RAT, Strain/Sex: F344/FEMALE, Route: GAVAGE, Dose: 1, 5, 25 MG/KG IN DISTILLED WATER FOR 104 WK (STUDY DURATION: 104 WK), Dose: 1, 5, 25 MG/KG IN DISTILLED WATER FOR 104 WK (STUDY DURATION: 104 WK) inactive; negative | Species: RAT, Strain/Sex: F344/MALE, Route: GAVAGE, Dose: 0, 1, 5, 25 MG/KG IN DISTILLED WATER FOR 104 WK (STUDY DURATION: 104 WK), Dose: 0, 1, 5, 25 MG/KG IN DISTILLED WATER FOR 104 WK (STUDY DURATION: 104 WK) inactive; negative

CN(N=O)C(=O)N[C@@H](C=O)[C@@H](O)[C@H](O)[C@H](O)CO
active: Species: HAMSTER, Route: INTRAPERITONEAL, INTRAVENOUS, Tumor Site: Type of Lesion: LIVER active; positive | Species: MOUSE, Route: INTRAPERITONEAL, Tumor Site: Type of Lesion: KIDNEY, LUNG, UTERUS, Tumor Site: Type of Lesion: KIDNEY, LUNG, UTERUS active; positive | Species: RAT, Route: INTRAPERITONEAL, Tumor Site: Type of Lesion: KIDNEY, LIVER active; positive | Species: RAT, Route: INTRAVENOUS, Tumor Site: Type of Lesion: KIDNEY active; positive | Species: RAT, Strain/Sex: SHR/MALE, Route: INTRAPERITONEAL, Dose: 0, 37.5, 50, 62.5, 75 MG/KG INJECTED ONCE (STUDY DURATION: 12 MO), Dose: 0, 37.5, 50, 62.5, 75 MG/KG INJECTED ONCE (STUDY DURATION: 12 MO), Tumor Site: Type of Lesion: LIVER: HEPATOMA, KIDNEY: NEPHROBLASTOMA, PANCREATIC ISLETS: TUMOR, Tumor Site: Type of Lesion: LIVER: HEPATOMA, KIDNEY: NEPHROBLASTOMA, PANCREATIC ISLETS: TUMOR active; positive | Species: RAT, Strain/Sex: WISTAR/MALE, Route: INTRAPERITONEAL, Dose: 0, 100, 125, 137.5, 150 MG/KG INJECTED ONCE (STUDY DURATION: 12 M0), Dose: 0, 100, 125, 137.5, 150 MG/KG INJECTED ONCE (STUDY DURATION: 12 M0), Tumor Site: Type of Lesion: LIVER: HEPATOMA, KIDNEY: NEPHROBLASTOMA active; positive

COc1ccccc1O
inactive: Species: RAT, Strain/Sex: SPRAGUE-DAWLEY/FEMALE, Route: GAVAGE, Dose: 0, 20, 50, 200 MG/KG/D IN 0.5% CARBOXYMETHYLCELLULOSE SUSPENSION FOR 103 WK (STUDY DURATION: 103 WK), Dose: 0, 20, 50, 200 MG/KG/D IN 0.5% CARBOXYMETHYLCELLULOSE SUSPENSION FOR 103 WK (STUDY DURATION: 103 WK) inactive; negative | Species: RAT, Strain/Sex: SPRAGUE-DAWLEY/MALE, Route: GAVAGE, Dose: 0, 20, 50, 200 MG/KG/D IN 0.5% CARBOXYMETHYLCELLULOSE SUSPENSION FOR 103 WK (STUDY DURATION: 103 WK), Dose: 0, 20, 50, 200 MG/KG/D IN 0.5% CARBOXYMETHYLCELLULOSE SUSPENSION FOR 103 WK (STUDY DURATION: 103 WK) inactive; negative

C=C(C)C(N)=O
active: Species: MOUSE, Strain/Sex: DDY, Route: INTRAPERITONEAL, Dose: 0, 2.35 MMOL/KG 1/2 D FOR 5 DOSES (STUDY DURATION: 6 MO), Tumor Site: Type of Lesion: LUNG: ADENOMA active; positive | Species: MOUSE, Strain/Sex: DDY, Route: INTRAPERITONEAL, Dose: 0, 2.35 MMOL/KG 1/D FOR 5 D (STUDY DURATION: 6 MO), Tumor Site: Type of Lesion: LUNG: ADENOMA active; positive

CC(=O)OCN(N=O)c1ccccc1
inactive: Species: HAMSTER, Strain/Sex: SYRIAN/FEMALE, Route: SUBCUTANEOUS, Dose: 0, 6.25, 12.5 MG/KG/WK IN OLIVE OIL FOR 4 WK (STUDY DURATION: 60 WK), Dose: 0, 6.25, 12.5 MG/KG/WK IN OLIVE OIL FOR 4 WK (STUDY DURATION: 60 WK) inactive; negative | Species: HAMSTER, Strain/Sex: SYRIAN/MALE, Route: SUBCUTANEOUS, Dose: 0, 1.56, 3.13 MG/KG/WK IN OLIVE OIL FOR LIFE (STUDY DURATION: 60 WK), Dose: 0, 1.56, 3.13 MG/KG/WK IN OLIVE OIL FOR LIFE (STUDY DURATION: 60 WK) inactive; negative | Species: HAMSTER, Strain/Sex: SYRIAN/MALE, Route: SUBCUTANEOUS, Dose: 0, 6.25, 12.5 MG/KG/WK IN OLIVE OIL FOR 4 WK (STUDY DURATION: 60 WK), Dose: 0, 6.25, 12.5 MG/KG/WK IN OLIVE OIL FOR 4 WK (STUDY DURATION: 60 WK) inactive; negative
active: Species: HAMSTER, Strain/Sex: SYRIAN/FEMALE, Route: SUBCUTANEOUS, Dose: 0, 1.56, 3.13 MG/KG/WK IN OLIVE OIL FOR LIFE (STUDY DURATION: 60 WK), Dose: 0, 1.56, 3.13 MG/KG/WK IN OLIVE OIL FOR LIFE (STUDY DURATION: 60 WK), Tumor Site: Type of Lesion: INJECTION SITE: TUMOR active; positive
